# Changes are numbered by the printed parent chain.
# Key:
# [1] = tested on: β-galactosidase transfected COS cells; assay: cAMP response in mock (β-galactosidase) transfected COS cells; format: cell-based; conditions: for activation of adenylate cyclase / increase of cAMP levels: β-galactosidase (mock) transfected COS cells; for increase in cAMP after stimulation with calcitonin: COS cells transfected with β-galactosidase
# Protocol: (§1) The cloned porcine receptor is functionally coupled to increased intracellular cAMP (FIGS. 2A and 2B). A 4-fold increase in the concentration of intracellular cAMP was observed after incubation of porcine CTR-transfected COS cells with calcitonin, but there was no increase when cells were transfected with β-galactosidase and subsequently stimulated with calcitonin.
# (§2) BIN-67 cells or COS-M6 cells were grown in 10 cm petri dishes. Forty eight hours before the cAMP assay, the COS-M6 cells were transfected with either human CTR cDNA, or with β-galactosidase cDNA which served as a control. After 24 hours, the transfected COS-M6 cells and the BIN-67 cells were trypsinized and transferred to plastic trays containing 24 16 mm wells (Falcon) at an initial plating density of 5×10^4 cells/well. To test for hormone-induced cAMP responses, the medium was removed from each well and the cells were washed with PBS supplemented with calcium and magnesium. Triplicate groups of cells were incubated for 20 minutes at 37° C. at room temperature with either test buffer [PBS supplemented with calcium, magnesium, 0.25% bovine serum albumin, 11 mM glucose and 1 mM 3-isobutyl-methyl-xanthine (IBMX)], or with 4 mM isoproterenol or peptide hormone at the appropriate concentrations. Reactions were stopped by placing the culture plates in a water bath at 100° C. until all liquid had evaporated. The plates were stored at -20° C. until assayed. The cAMP assay was performed by adding 1.0 ml of 50 mM sodium acetate buffer, pH 6.2, to each well. Dried cells were scraped into this buffer, transferred to glass tubes and centrifuged at 500×g for 10 minutes. Aliquots of supernatant were assayed for cAMP using a radioimmunoassay kit (New England Nuclear/Dupont cAMP [^125 I] Radioimmunoassay Kit, Dupont).
# human CTR [2] = molecular target: T1, human CTR (Homo sapiens, UniProt P30988, L447P/S166F); assay: cAMP assay in COS-M6 cells transfected with human CTR cDNA; format: cell-based
# T1 construct: expressed in transfected cells; host or cells: COS-M6 (COS-7 subclone)
# T1 sequence (P30988 25-490 isoform P30988-1 S166F/L463P): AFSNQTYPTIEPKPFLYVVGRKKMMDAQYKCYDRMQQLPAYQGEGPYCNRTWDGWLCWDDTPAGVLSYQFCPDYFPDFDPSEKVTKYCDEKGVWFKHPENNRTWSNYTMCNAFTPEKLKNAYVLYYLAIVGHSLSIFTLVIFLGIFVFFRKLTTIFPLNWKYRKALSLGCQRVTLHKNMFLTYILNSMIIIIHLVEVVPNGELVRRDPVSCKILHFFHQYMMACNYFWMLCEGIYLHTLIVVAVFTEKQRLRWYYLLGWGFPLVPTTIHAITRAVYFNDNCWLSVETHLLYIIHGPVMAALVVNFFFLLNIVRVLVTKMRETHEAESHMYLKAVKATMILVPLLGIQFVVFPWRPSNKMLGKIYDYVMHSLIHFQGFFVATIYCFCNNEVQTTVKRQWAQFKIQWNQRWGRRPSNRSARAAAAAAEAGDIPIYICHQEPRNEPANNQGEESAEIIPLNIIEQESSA
# Protocol: Plasmid DNA was used to transfect COS-M6 cells growing in 10 cm petri dishes (Falcon, Lincoln Park, N.J.) using the DEAE-dextran/chloroquine procedure (Seed and Aruffo, 1987, Proc. Natl. Acad. Sci. USA 84:3365). Forty-eight hours after transfection, cells were incubated in the presence of either iodinated calcitonin for ligand binding studies, or unlabeled calcitonin for the assay of intracellular cAMP.
# as §2
# [3] = molecular target: T2, porcine calcitonin receptor (CTR) (Sus scrofa, UniProt P25117); format: cell-based
# T2 construct: expressed in transfected cells; host or cells: COS cells
# T2 sequence (P25117 30-482 isoform P25117-2 K186L): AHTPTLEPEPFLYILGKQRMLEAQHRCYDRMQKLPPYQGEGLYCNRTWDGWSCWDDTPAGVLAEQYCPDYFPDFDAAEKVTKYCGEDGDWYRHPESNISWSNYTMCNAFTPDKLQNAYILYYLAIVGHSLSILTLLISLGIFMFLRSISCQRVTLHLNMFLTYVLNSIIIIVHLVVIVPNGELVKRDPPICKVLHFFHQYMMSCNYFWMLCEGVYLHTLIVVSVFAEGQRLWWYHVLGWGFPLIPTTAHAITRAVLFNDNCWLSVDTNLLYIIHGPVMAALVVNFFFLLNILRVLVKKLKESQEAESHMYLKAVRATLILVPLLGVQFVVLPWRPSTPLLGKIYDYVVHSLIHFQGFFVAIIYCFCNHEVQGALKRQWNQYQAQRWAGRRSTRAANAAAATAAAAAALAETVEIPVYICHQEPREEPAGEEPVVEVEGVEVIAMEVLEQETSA
# Protocol: as §1
# as §2, with “The plates were stored at -20° C. until assayed. The cAMP assay was performed by adding 1.0 ml of 50 mM sodium acetate buffer, pH 6.2, to each well. Dried cells were scraped into this buffer, transferred to glass tubes and centrifuged at 500×g for 10 minutes. Aliquots of supernatant were assayed for cAMP using a radioimmunoassay kit (New England Nuclear/Dupont cAMP [^125 I] Radioimmunoassay Kit, Dupont).” left out
# [4] = molecular target: T2, porcine calcitonin receptor (CTR); assay: Radioiodinated salmon calcitonin binding to COS cells transfected with porcine CTR cDNA
# From the text: (§3) Radioiodinated salmon calcitonin binds to LLC-PK1 cells and to COS cells transfected with the cloned porcine calcitonin receptor (CTR) cDNA (FIGS. 1A and 1B). […] Bovine parathyroid hormone (1-34) [PTH(1-34)]
# [5] = molecular target: T3, calcitonin binding sites of BIN-67 cells (Homo sapiens, UniProt P30988); assay: Radioligand binding of salmon and human calcitonin to BIN-67 cells; conditions: for displacement of radiolabeled salmon or human calcitonin binding: concentrations as high as 10^-5 M
# T3 construct: native BIN-67 cells (0.42 nM); endogenous in cells; host or cells: BIN-67 (human ovarian small cell carcinoma)
# T3 sequence (P30988 25-490 isoform P30988-1 limits assumed): T1 sequence (P30988 25-490 isoform P30988-1 S166F/L463P) with F142S, P439L
# Protocol: (§4) Human small ovarian cell carcinoma cells (BIN-67) were grown in 10 cm petri dishes in Dulbecco's modified Eagle's medium (DMEM) supplemented with 20% (vol/vol) heat inactivated fetal calf serum (GIBCO) and enriched with 25% Ham's F12 medium (GIBCO). Cells at near confluency, were passed approximately twice a week by trypsinization using 0.25% trypsin (GIBCO). Radioligand binding assays were performed in triplicate as follows. The cells were washed, trypsinized and counted in an automated cell counter (Coulter, Hialeah, Fla.). […] The mixture was incubated for 14-16 hours at 4° C. The cells were washed by layering 100 μl of cell suspension over 400 μl of 10% sucrose (wt/vol) in a mini-microfuge tube (Bio-Rad) and centrifuging at maximum speed in a microfuge for three minutes to pellet the cells. The supernatant was removed by aspiration, and the portion of the tube containing the cell pellet was cut off and assayed for radioactive content in a gamma counter (TM Analytic, Elk Grove Village, Ill.). Ligand binding to COS-M6 cells transfected with a human CTR-containing plasmid was performed using the same technique.
# human CTR [6] = molecular target: T1, human CTR; assay: Radioligand binding to COS-M6 cells transfected with human CTR cDNA; conditions: for competition for binding with radioiodinated salmon or human calcitonin: COS cells transfected with human CTR cDNA
# Protocol: as §4
# BIN-67 cells = assay: cAMP assay in BIN-67 cells; format: cell-based, human; conditions: read-out: 50% maximal effective concentration (EC50) for cAMP increase
# Protocol: as §2, with “Aliquots of supernatant were assayed for cAMP using a radioimmunoassay kit (New England Nuclear/Dupont cAMP [^125 I] Radioimmunoassay Kit, Dupont).” left out
# [7] = molecular target: T4, calcitonin receptors of BIN-67 cells (Homo sapiens, UniProt P30988); assay: Emulsion autoradiography of BIN-67 cells with [125I]-salmon calcitonin; format: binding
# T4 construct: native BIN-67 cells (0.42 nM); endogenous in cells; host or cells: BIN-67 (human ovarian small cell carcinoma)
# T4 sequence (P30988 25-490 isoform P30988-1 limits assumed): T1 sequence (P30988 25-490 isoform P30988-1 S166F/L463P) with F142S, P439L
# Protocol: Cells were grown on glass chamber slides (Nunc, Kamstrup, DK). The medium was removed by aspiration and the cells were incubated in binding buffer (PBS supplemented with 11 mM glucose, 0.5% bovine serum albumin) with [^125 I]-salmon calcitonin (200 pM) with or without 10^-6 M unlabeled salmon calcitonin (Sigma). After 5 washes in ice cold PBS supplemented with calcium and magnesium, the cells were fixed in PBS plus 2% formaldehyde, coated with Kodak NTB2 emulsion and exposed for 1-3 weeks at 4° C., after which they were developed and counterstained with Giemsa.
# [8] = molecular target: T5, calcitonin receptors of LLC-PK1 cells (Sus scrofa, UniProt P25117); assay: Radioiodinated calcitonin binding to LLC-PK1 cells (Scatchard); design: species or system porcine; conditions: FIG. 1A, read-out: apparent dissociation constant (Kd)
# T5 construct: endogenous in cells; host or cells: LLC-PK1
# T5 sequence (P25117 30-482 isoform P25117-2 limits assumed): T2 sequence (P25117 30-482 isoform P25117-2 K186L) with L157K
# From the text: The porcine calcitonin receptor was cloned by expression in COS cells, using a strategy generally described in Lin et al., 1991, Proc. Natl. Acad. Sci. USA 88:3185. […] Pools of mini-prep cDNA (Sambrook et al., 1989, Molecular Cloning: A Laboratory Manual, Cold Spring Harbor Laboratory, N.Y.) containing 10^4 recombinants were transfected into COS cells and screened for binding to radioiodinated salmon calcitonin by emulsion autoradiography (Gearing et al., 1989, EMBO 8:3667). After screening 30 pools representing 3×10^5 clones, two positive pools were identified from which two positive clones with cDNA inserts 2.2 and 3.9 kb in length were isolated. The 2.2 kb clone (3JS-14-FI) was a truncated version of the 3.9 kb clone (2B5-0-I) but encoded the same open reading frame.
# as §3
compound,measurement,setting,value
CC(C)NCC(O)c1ccc(O)c(O)c1 (stereo not drawn) [isoproterenol],activation of adenylate cyclase / increase of cAMP levels,[1],increased cAMP levels
same,activation of adenylate cyclase / increase of cAMP levels,[1]; listed as Isoproterenol,activated adenylate cyclase
same,cAMP response,human CTR [2]; FIG. 7C,increased cAMP levels
same,activation of adenylate cyclase,[3]; porcine CTR-transfected cells,activated adenylate cyclase
Bovine parathyroid hormone (1-34) [PTH],competition for binding of radioiodinated salmon calcitonin,[4]; porcine CTR transfectants,did not compete
same,displacement of radiolabeled salmon or human calcitonin binding,[5]; BIN-67 cells,failed to displace
same,competition for binding with radioiodinated salmon or human calcitonin,human CTR [6],"failure of other hormones, including PTH or secretin, to compete for binding"
same,cAMP response,human CTR [2]; FIG. 7C,failure of PTH to induce a response
human calcitonin,maximal binding,"[5]; human calcitonin binding to BIN-67 cells, FIG. 6C",1.92×10^4 cpm per sample
same,EC50,BIN-67 cells,~3 nM
salmon calcitonin,Kd,"[4]; COS cells transfected with porcine CTR cDNA, FIG. 1B, read-out: apparent Kd",~6 nM
same,Kd,"[5]; BIN-67 cells, radiolabeled ligand, 4° C., read-out: Kd (Scatchard analysis)",0.42 nM
same,IC50,"[5]; read-out: apparent 50% inhibitory concentration (IC50), BIN-67 cells, [125I]human calcitonin competed with unlabeled ligand",0.6 to 0.7 nM
same,increase in cAMP after stimulation with calcitonin,[1],failed to increase cAMP levels above control levels
same,increase in cAMP after stimulation with calcitonin,[1]; listed as calcitonin,no increase
same,EC50,BIN-67 cells,~0.7 nM
same,competition of [125I]-salmon calcitonin label by excess unlabeled ligand,[7],competed out all of the label
same,Kd,"human CTR [6]; COS-M6 cells transfected with HCTR-BIN67, read-out: apparent Kd (Scatchard analysis)",0.44 nM
same,Kd,[8],~3 nM
same,increase in cAMP levels,"human CTR [2]; maximal stimulatory concentrations, 20 minutes, IBMX, FIG. 7C",~4 fold
same,increase in concentration of intracellular cAMP,"[3]; cos cells, 20 min",4 fold
secretin,displacement of radiolabeled salmon or human calcitonin binding,[5]; BIN-67 cells,failed to displace
same,competition for binding with radioiodinated salmon or human calcitonin,human CTR [6],"failure of other hormones, including PTH or secretin, to compete for binding"
same,cAMP response,human CTR [2]; concentrations up to 10^-6 M,failed to induce a response
